The record followed here is patent publication US7427625B2, “Substituted thiatriazaacenaphthylene-6-carbonitrile kinase inhibitors” (Janssen Pharmaceutica, N.V., priority 2006, dated 2008).

For one experiment, the system named is A375 malignant melanoma. The experiment is described as follows: Cell Proliferation Inhibition Assay (14C-thymidine incorporation), A375. Type of experiment: cell-based. As to conditions: Homo sapiens, A-375. As for the experimental part:
The ability of a test compound to inhibit unregulated cell proliferation was determined by measuring incorporation of ^14C-labelled thymidine into newly synthesized DNA within cell lines derived from carcinomas originating from several tissues. Accordingly, the anti-proliferative effect of a compound on cells with a variety of phenotypes may be determined.
Carcinoma cell lines include those such as HeLa cervical adenocarcinoma (American Type Culture Collection (ATCC), Virginia, Cat. #CCL-2), A375 malignant melanoma (ATCC CRL-1619), SK-OV-3 ovarian adenocarcinoma (ATCC HTB-77), HCT-116 colon carcinoma (CCL-247), PC-3 prostate adenocarcinoma (ATCC CRL-1435), and MDA-MB-231 (Xenogen Corp.)
The carcinoma cells were trypsinized and counted. The cells (3000-8000 count) were added to each well of a 96-well CytoStar tissue culture treated scintillating microplate (Amersham #RPNQ0160) in complete medium (100 μL) and the plate was then incubated in complete medium for 24 hrs at 37° C. in an […] atmosphere containing 5% CO2. Test compound (1 μL) in 100% DMSO was added to the plate test-wells with DMSO only added to control-wells. The plate was incubated in complete medium for a second 24 hr period at 37° C. in an atmosphere containing 5% CO2.
An aliquot of a solution of Methyl ^14C-thymidine ([…]) (NEN #NEC568 or Amersham #CFA532) and complete medium (20 uL to provide 0.2 μCi/well) was then added to each well and the plate was incubated for a third 24 hr period at 37° C. in an atmosphere containing 5% CO2. The plate contents were then discarded, the plate was washed twice with PBS (200 μL) and then PBS (200 μL) was added to each well. The plate was sealed and the degree of methyl ^14C-thymidine incorporation was quantified on a Packard Top Count.
A general note: Incorporation of labelled thymidine or its analogues reports DNA synthesis.

The target of a further experiment is T1, Aurora-A (Mus musculus, UniProt P97477).
T1 construct: followed by the full length protein encoding the murine Aurora-A; polyhistidine (N); made in house; host or cells: sf9 insect cells
T1 sequence (P97477 1-395): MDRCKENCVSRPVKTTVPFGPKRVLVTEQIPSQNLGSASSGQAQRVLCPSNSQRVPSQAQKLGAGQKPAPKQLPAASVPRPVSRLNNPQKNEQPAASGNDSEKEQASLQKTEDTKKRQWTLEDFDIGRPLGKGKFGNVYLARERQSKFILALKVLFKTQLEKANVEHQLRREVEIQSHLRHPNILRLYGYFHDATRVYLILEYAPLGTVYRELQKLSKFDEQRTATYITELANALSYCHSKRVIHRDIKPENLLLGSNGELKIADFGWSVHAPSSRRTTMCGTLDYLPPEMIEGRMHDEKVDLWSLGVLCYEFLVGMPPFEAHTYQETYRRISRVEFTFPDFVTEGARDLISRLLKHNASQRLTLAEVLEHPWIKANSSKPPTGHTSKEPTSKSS
Briefly: Aurora-A Screening Assay. In kind it is biochemical, murine.

pIC50: −log10 of the molar value.

On to `CN(C)C1CCN(Cc2ccc(NC(=O)c3sc4ncc(C#N)c5c4c3NC(=O)N5c3c(Cl)ccc4c3OCO4)cc2)CC1` [Cpd 42, 5-(5-chloro-benzo[1,3]dioxol-4-yl)-6-cyano-4-oxo-4,5-dihydro-3H-1-thia-3,5,8-triaza-acenaphthylene-2-carboxylic acid [4-(4-dimethylamino-piperidin-1-ylmethyl)-phenyl]-amide], for which the negative logarithm of the IC50 (pIC50) was less than 4.00 in the experiment with A375 malignant melanoma and less than 5.00 at Aurora-A.
Consider `N#Cc1cnc2sc(C(=O)Nc3ccc(CCN4CCCCC4)cc3)c3c2c1N(c1ccc(Oc2ccccc2)cc1)C(=O)N3` [Cpd 48, 6-cyano-4-oxo-5-(4-phenoxy-phenyl)-4,5-dihydro-3H-1-thia-3,5,8-triaza-acenaphthylene-2-carboxylic acid [4-(2-piperidin-1-yl-ethyl)-phenyl]-amide], for which the negative logarithm of the IC50 (pIC50) in the experiment with A375 malignant melanoma is 5.08; on Aurora-A it was less than 4.00.
As to `CC(C)(C)OC(=O)NC1CCN(Cc2ccc(NC(=O)c3sc4ncc(C#N)c5c4c3NC(=O)N5c3c(Cl)ccc4c3OCO4)cc2)CC1` [Cpd 46, [1-(4-{[5-(5-chloro-benzo[1,3]dioxol-4-yl)-6-cyano-4-oxo-4,5-dihydro-3H-1-thia-3,5,8-triaza-acenaphthylene-2-carbonyl]-amino}-benzyl)-piperidin-4-yl]-carbamic acid tert-butyl ester], the negative-log IC50 (pIC50) with A375 malignant melanoma is less than 5.00; against Aurora-A it was less than 6.00.
For `CN(C)C1CCN(C(=O)c2sc3ncc(C#N)c4c3c2NC(=O)N4c2c(Cl)ccc3c2OCO3)CC1` [Cpd 41, 5-(5-chloro-benzo[1,3]dioxol-4-yl)-2-(4-dimethylamino-piperidine-1-carbonyl)-4-oxo-4,5-dihydro-3H-1-thia-3,5,8-triaza-acenaphthylene-6-carbonitrile], the negative-log IC50 (pIC50) in the experiment on A375 malignant melanoma is less than 4.00; against Aurora-A, less than 5.00.

Usually pIC50 stands for −log10 of the IC50, conventionally taken in molar units. A low value points to a large IC50.
